# Test results from US20100190824A1, “Novel Substituted Piperidones as HSP Inducers” (priority 2007, published 2010).
# Experiments:
# [1] = test system: rat orthotopic liver transplantation model; details: donors treated; with vehicle all recipients died; cited from earlier work
# [2] = test system: injured motoneurones; details: cited from earlier work
# [3] = test system: streptozotocin-induced neuropathy; details: cited from earlier work
# [4] = test system: permeability of blood brain barrier; details: vascular insult evoked by sub-arachnoidal autologous blood; cited from earlier work
# [5] = test system: HSP70b mRNA; assay: Cellular expression of HSP-70 mRNA in primary mixed neurons (real-time PCR); format: cell-based; details: fold induction of HSP70b mRNA relative to vehicle treated control; primary mixed neurons from neonatal rat cerebellum; 4 hours; normalized to 18S rRNA
# Experimental: Experiments set forth in this section were conducted to determine whether the compounds of the present invention are able to elevate the expression of HSP-70 gene in cells.
# Hela cell-line or primary mixed neurons derived from neonatal rat cerebellum were employed. Induction was carried out for the indicated dose(s) for 4 hours duration and total RNA was isolated. Expression of HSP70b mRNA along-with expression of 18S rRNA was monitored by real-time PCR. HSP70b mRNA expression was normalized relative to the expression of 18S rRNA.
# The results for test compounds were expressed as fold induction of HSP-70 mRNA relative to vehicle treated control and are as shown in Table 2 & 3.
# [6] = test system: male Sprague Dawley rats; assay: Neuroprotective activity, transient cerebral ischemia (intraluminal suture occlusion); format: in vivo, rat
# Experimental: Transient cerebral ischemia (for 2 hit) was induced in male Sprague Dawley rats of 240-270 g body weight under halothane anaesthesia by the intraluminal suture occlusion technique—inserting a 3-0 polyamide suture from proximal external carotid artery into the lumen of internal carotid artery (Longa E Z. et al. Stroke 20: 84-91; 1989). During the entire surgical procedure for the induction of stroke, the body temperature of the animal was maintained at 37° C., using a homoeothermic blanket. At the end of 2 hrs the suture was removed for reperfusion. The test compound was administered to animals at 8th hour post initiation of occlusion and subsequently at specified interval. At the end of 7 days all the animals were sacrificed and infarct was characterized after staining with triphenyl tetrazolium chloride (TTC). The images of the stained slices were captured using a scanner and was analyzed for infarct size and edema using Scion image software. Neurological scores were obtained at different time points after surgical recovery and improvement was assessed after reperfusion by calculating the percentage change from baseline scores (scores during ischemia).
# [7] = test system: TNF-α mRNA; assay: Inhibition of LPS-induced TNF-α expression in PMA differentiated THP-1 cells; format: cell-based, Human; details: LPS (1 ug/ml) and compound for 4 hours, LPS alone as 100%
# Experimental: The purpose of the present study was to determine the inhibition of lipopolysaccharide(LPS)-induced TNF-α expression in phorbol merstyl ester (PMA) differentiated THP-1 cells.
# Human monocytic leukaemia cell line (THP-1), differentiated into macrophage-like cells by PMA treatment was employed. Differentiated cells were treated with either LPS (1 ug/ml) alone or with LPS (1 ug/ml) and compound for 4 hours. Total RNA was isolated and expression of TNF-αmRNA along-with expression of 18S rRNA was monitored by real-time PCR. TNF-α mRNA expression was normalized relative to the expression of 18S rRNA Considering TNF-α expression for cells treated with LPS alone as 100%; the results for test compounds were expressed as % inhibition of TNF-α expression and are as shown in Table 4
compound,measurement,setting,value
CC(=O)CCC=C(C)CC/C=C(\C)CC/C=C(\C)CCC=C(C)C (mixture of isomers) [Geranylgeranyl acetone],7-day survival of the recipients,[1],~90%
[O-][n+]1cccc(/C(Cl)=N/OC[C@H](O)CN2CCCCC2)c1 [BRX-220],motoneurones survived,"[2]; 14 days after injury, 21% in vehicle group",39%
same,motoneurons survived,"[2]; at 10 weeks, 15% in untreated group",42%
OC(CO/N=C(\Cl)c1cccnc1)CN1CCCCC1 (stereo not shown) [Bimoclomol],"reduction of nerve conduction slowing, motor",[3],38%
same,"reduction of nerve conduction slowing, sensory",[3],42%
same,retardation of elevated ischemic resistance,[3],71%
same,reduction of size of cerebral tissue stained with Evans blue leakage,[4],39%
"COc1ccc(CC2N(C(=O)Nc3c(C(C)C)cccc3C(C)C)CC(=Cc3ccccn3)C(=O)C2(C)C)cc1 (stereo not shown) [Compound 68, 2-(4-Methoxy-benzyl)-3,3-dimethyl-4-oxo-5-[1-pyridin-2-yl-methylidene]-piperidine-1-carboxylic acid (2,6-diisopropyl-phenyl)-amide]",HSP Induction in mixed neuron,[5],(++++) (>16 fold)
same,% reduction Edema,"[6]; i.p. 15.2 mg/kg, multiple dose, from 8th hour post initiation of occlusion, 2 h ischemia, sacrificed at 7 days",51.0%
same,% reduction Infarct,"[6]; i.p. 15.2 mg/kg, multiple dose, from 8th hour post initiation of occlusion, 2 h ischemia, sacrificed at 7 days, TTC staining",30.0%
same,% improvement Mean Neurological Score,"[6]; i.p. 15.2 mg/kg, multiple dose, percentage change from baseline scores (scores during ischemia)",61.1%
same,neuroprotective activity in an animal model of cerebral ischemia,[6]; result in words,reduced infarct size and brain edema with improvement in neurological deficit
same,TNF-alpha Inhibition,[7],(++++) (>80%)
